Each structure is given as a SMILES string.

In one series the target is T1, purified human AGT (Homo sapiens, UniProt P16455).
T1 sequence (P16455 1-207): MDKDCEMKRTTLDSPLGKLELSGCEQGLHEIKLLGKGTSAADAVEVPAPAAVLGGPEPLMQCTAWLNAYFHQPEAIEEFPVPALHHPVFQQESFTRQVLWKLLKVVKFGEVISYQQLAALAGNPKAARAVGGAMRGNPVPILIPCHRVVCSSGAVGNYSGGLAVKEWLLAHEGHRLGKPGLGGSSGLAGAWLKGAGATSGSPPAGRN
In words: Inactivation of purified human AGT. The format is biochemical. Conditions: Table 2 footnotes; read-out: ED50 with purified human AGT.

Series [1] has as its target T2, O^6-alkylguanine-DNA alkyltransferase (AGT) (Homo sapiens, UniProt P16455).
T2 sequence (P16455 1-207): T1 sequence (P16455 1-207)
In words: AGT inactivation in HT29 cell-free extract.
Method: (§1) The data represent the dose of compound required to produce 50% inactivation in cell-free extracts upon incubation for 30 min or in cells upon incubation for 4 hr.

A short description of series [2]: Behaviour in solution at pH 13 (noted with UV spectra). The format is physicochemical.
Series [3] deals with T2, O^6-alkylguanine-DNA alkyltransferase (AGT). The series is described as follows: AGT inactivation in intact HT29 cells. Conditions: for ratio of ED50 values in cell-free extracts/intact cells: HT29.
Method: as §1
Series [4] has as its system DU-145 prostate cancer cells. The series is described as follows: Killing of DU-145 prostate cancer cells by BCNU combined with AGT inactivators (colony formation).
Method: (§2) Cells were treated for 2 h with AGT inactivator prior to exposure to BCNU.
The subject of the next series is HT-29 colon cancer cells. The series is described as follows: Killing of HT-29 colon cancer cells by BCNU combined with AGT inactivators (colony formation). The note with it: HT-29.
Series [5] deals with MCF-71 breast cancer cells. In words: Killing of MCF-71 breast cancer cells by BCNU combined with AGT inactivators (colony formation). The note with it: inactivator 10 μM.
Method: as §2

Method for HT-29 colon cancer cells: as §2

The molecule `CC(C)(C)C(=O)OCn1nnc2c(OCc3ccccc3)nc(N)nc21` [Compound 8b, 8-Aza-O^6-benzyl-9-(pivaloyloxymethyl)guanine] registered a melting point of 119 to 120 °C. Moreover, at purified human AGT, the EC50 was 4000 nM. Moreover, the EC50 in series [1] is 280 nM. Besides, in series [2], the “stability at pH 13” value is “decomposes to 8-aza-O^6-benzylguanine”. In series [3], the EC50 turned out to be 230 nM.

Regarding `CC(C)(C)C(=O)OCn1cnc2nc(N)nc(OCc3ccccc3)c21` [Compound 12, O^6-benzyl-7-(pivaloyloxymethyl)guanine], the results for the EC50 (on purified human AGT; in series [1]; in series [3]) were above 100000 nM, 9000 nM and 300 nM, respectively. Besides, in series [2], the “stability at pH 13” value was “decomposes to O^6-benzylguanine”.

In the case of `CC(C)(C)C(=O)OCn1nnc2nc(N)nc(OCc3ccccc3)c21` [Compound 9, 8-Aza-O^6-benzyl-7-(pivaloyloxymethyl)guanine], the melting point was 153 to 154 °C. Also, the EC50 on purified human AGT was 2000 nM. Besides, the EC50 in series [1] amounted to 110 nM. Also, the “stability at pH 13” value in series [2] is given as “decomposes to 8-aza-O^6-benzylguanine”. Moreover, the EC50 in series [3] amounted to 160 nM.

In the case of `Nc1nc(OCc2ccccc2)c2nc(C(F)(F)F)[nH]c2n1` [Compound 1e, O^6-Benzyl-8-trifluoromethylguanine], the melting point is 214 to 216 °C (dec.). Further, the EC50 in series [1] was 400 nM. Further, in series [3], the EC50 was found to be 250 nM and the “ratio of ED50 values in cell-free extracts/intact cells” value is on record as 1.6.

Consider `CC(C)(C)C(=O)OCn1c(Br)nc2c(OCc3ccccc3)nc(N)nc21` [Compound 10b, O^6-Benzyl-8-bromo-9-(pivaloyloxymethyl)guanine], for which the melting point fell in the range of 217 to 218 °C. At purified human AGT, the EC50 was above 100000 nM. The same molecule gave an EC50 in series [1] of 80 nM. Besides, in series [2], the “stability at pH 13” value is on record as “decomposes to O^6-benzyl-8-bromoguanine”. The EC50 in series [3] was determined as 50 nM.

The molecule `Cn1c(C(F)(F)F)nc2c(OCc3ccccc3)nc(N)nc21` [Compound 7, O^6-Benzyl-8-trifluoromethyl-9-methylguanine] had a melting point of 86 to 89 °C. This molecule also came in with an EC50 in series [1] of 2500 nM. In series [3], the EC50 amounted to 400 nM and the “ratio of ED50 values in cell-free extracts/intact cells” value is given as 6.3. Further, the “AGT inactivating activity in intact HT29 cells, in words” value in series [3] (comparison) is “significantly higher than their activity in cell-free extracts”.

Turning to `Nc1nc(OCc2ccccc2)c2nn[nH]c2n1` [Compound 2, 8-Aza-O^6-benzylguanine], the results for the EC50 in series [1] and in series [3] were 70 nM and 60 nM, respectively. For the same molecule, the “Colony Formation per 1000 cells” value stood at 248 ± 21 per 1000 cells in series [4] (inactivator 1 μM, BCNU 40 μM); 28 ± 5 per 1000 cells in series [4] (inactivator 10 μM, BCNU 40 μM); 452 ± 72 per 1000 cells in series [4] (inactivator 10 μM, BCNU none); 423 ± 42 per 1000 cells in the series on HT-29 colon cancer cells (inactivator 1 μM, BCNU 40 μM); 2 ± 1 per 1000 cells in the series on HT-29 colon cancer cells (inactivator 10 μM, BCNU 40 μM); 537 ± 48 per 1000 cells with HT-29 colon cancer cells (inactivator 10 μM, BCNU none). Further, the “Colony Formation per 1000 cells” value was 2 ± 1 per 1000 cells in series [5] (BCNU 40 μM) and 483 ± 27 per 1000 cells in series [5] (BCNU none).

By melting point is commonly meant the temperature of the solid-liquid transition.

For the origin of these results see US6436945B2, “Substituted O6-benzyl-8-aza-guanines” (The United States of America as represented by the of …, priority 1994, dated 2002).
